We go through 3 compounds from patent US20210380535A1, “CO-CRYSTALS COMPRISING EPICATECHIN AND A CARBOXY-N-HETEROCYCLIC CO-CRYSTAL FORMER” (Epirium Bio Inc., priority 2018, published 2021).

Molecules are shown by their SMILES. Read-outs that look alike come from different tables or passages of the source.

Series [1] can be described thus: Pharmacokinetics study of (+)/(−) epicatechin and their trigonelline (1:1) co-crystals, oral (Example 3). Format: in vivo. The settings on record: rat, 10 mg/kg, male SD rats, 10 mpk equivalent of parent drug, vehicle CMC and Tween 80, plasma; for half-life: read-out: T½ elimination (converted). How it is done:
(§1) Co-crystals of the present invention were administered orally (PO) at a dose of 10 mpk equivalent of parent drugs in male SD rats. The PK results of the compound were compared with exposure of parent drugs. […] Blood samples were centrifuged at 10,000 rpm for 5 min. at 4° C. to obtain the plasma, which were aspirated into separate labelled tubes and stored at −80° C. Extraction solvent was added to plasma, was vortexed and shaken on shaker for 10 minutes, centrifuged at 10,000 rpm for 10 minutes at 4° C. Supernatant was kept for analysis.

Series [2] in a line: Pharmacokinetics study of (+) epicatechin (SPR590) and its trigonelline (1:1) co-crystal (SPR515), oral (Example 4). The settings on record: rat, plasma, male SD rats, CMC and Tween 80. Format: in vivo. How it is done:
as §1, with “mpk” for “mpk equivalent of parent drugs”, “rats for the control (+) epicatechin group and 10 mpk of SPR 515 which is equivalent to 6.25 mpk of epicatechin.” for “rats.”

For series [3] the following is noted: average; male SD rats, PO, 14 mpk of Compound 109 (equivalent to 10 mpk epicatechin), vehicle 0.5% CMC. On the procedure:
A pharmacokinetics study was carried out to evaluate the plasma exposure of D-proline co-crystals of (+) epicatechin (Compound 109). Co-crystals were administered orally (PO) at a dose of 14 mpk of Compound 109, which is equivalent to 10 mpk of epicatechin. The dosing vehicle that was used in this study was 0.5% CMC. After oral dosing, blood was collected by serial bleeding at different time points in heparinised tubes. Blood samples were centrifuged at 10,000 rpm for 5 min. at 4° C. to obtain the plasma, which were aspirated into separate labelled tubes and stored at −80° C. Extraction solvent was added to plasma, was vortexed and shaken on a shaker for 10 minutes, and then centrifuged at 10,000 rpm for 10 minutes at 4° C. Supernatant was kept for analysis. Acetonitrile and plasma calibration curves were generated and percentage of drug recovery from plasma determined. Quantitative analysis was done by liquid chromatography tandem mass spectrometer (API3000 LC-MS/MS). PK parameters were calculated using Graph Pad PRISM version 5.04 and the results are depicted in Table 7.

The mark [4] stands for this setting: PO, dose 10 mpk (MW adjusted (+)-epicatechin dose: SPR590 10 mpk, SPR515 6.25 mpk).

In the case of `Oc1cc(O)c2c(c1)O[C@@H](c1ccc(O)c(O)c1)[C@@H](O)C2` [Compound 108, (+) epicatechin], in series [1], the AUC (usually concentration integrated over time) worked out at 0.579 µM·h, the maximum concentration (Cmax) (commonly the peak of the concentration-time curve) turned out to be 333 nM, the Tmax (usually the time at which the peak concentration occurs) worked out at 60 min and the half-life was 49.8 min. In series [2] (setting [4]), this compound yielded an AUC of 0.678 µM·h and a Cmax of 386 nM. In series [2] (time point 0.16 h, PO 10 mpk (SPR515: equivalent to 6.25 mpk epicatechin), read-out: Plasma level), the concentration at 0.16 h was found to be 236 nM. In addition, in series [2] (time point 0.5 h, PO 10 mpk (SPR515: equivalent to 6.25 mpk epicatechin), read-out: Plasma level), the concentration at 0.5 h was found to be 338 nM. Moreover, the concentration at 1 h in series [2] (time point 1 h, PO 10 mpk (SPR515: equivalent to 6.25 mpk epicatechin), read-out: Plasma level) is 262 nM. Also, in series [2] (time point 2 h, PO 10 mpk (SPR515: equivalent to 6.25 mpk epicatechin), read-out: Plasma level), the concentration at 2 h came out at 152 nM. Also, the concentration at 4 h in series [2] (time point 4 h, PO 10 mpk (SPR515: equivalent to 6.25 mpk epicatechin), read-out: Plasma level) amounted to 24.1 nM. The concentration at 8 h in series [2] (time point 8 h, PO 10 mpk (SPR515: equivalent to 6.25 mpk epicatechin), read-out: Plasma level) came out at 0 nM.
On to `O=C(O)[C@H]1CCCN1.Oc1cc(O)c2c(c1)O[C@@H](c1ccc(O)c(O)c1)[C@@H](O)C2` [Compound 109, (+) Epicatechin_(D)-Proline (1:1) Co-Crystals], for which, in series [3], the AUC is 1905.33 nM·h, the Cmax came to 778 nM, the time of peak concentration (Tmax) is 45 min and the T½ elimination came to 1.71 h.
In the case of `Oc1cc(O)c2c(c1)O[C@H](c1ccc(O)c(O)c1)[C@H](O)C2` [Compound 107, (−) epicatechin], in series [1], the AUC turned out to be 0.678 µM·h, the Cmax was determined as 386 nM, the Tmax was found to be 18 min and the half-life is 113 min.
